From US9802949B2, “Fused ring compounds as hepatitis C virus inhibitors, pharmaceutical compositions and uses thereof” (SUNSHINE LAKE PHARMA CO., LTD., priority 2012, dated 2017) come the findings set out here.

One test has as its system HCV GT1a replicon. Kind of test: HCV replicon assay (Huh-7 cells stably transfected with HCV GT1a replicon; luciferase or NEO gene qPCR readout). Type of test: cell-based. As to conditions: Hepatitis C virus, HCV 1a genotype replicon, 72 hours. On the procedure: (§1) HCV Replicon System was utilized as a screening model in the present disclosure to evaluate the antivirus effects of the compounds disclosed herein against HCV. HCV Replicon assay was first described in Science, 1999, 285 (5424), 110-3. […] To determine the potential anti-HCV effects of the test compounds, luciferase assay and antibiotic Neomycin resistance gene were tested according to the method described in Science. 1999 Jul. 2; 285 (5424), 110-3 and J. Virol. 2003 March; 77 (5), 3007-19.
(§2) In a word, the compounds disclosed herein were tested by using human hepatic carcinoma cell line Huh-7 which is transfected stably with HCV GT1a, GT1b or GT2a replicon respectively, and resistant cells of Y93H, L31F, P32L or I302V and wild-type cells HCV 1b. HCV Replicon System disclosed herein contains G418 resistance gene NEO and Luciferase Reporter Gene, and the level of HCV replication in host cells is detected and characterized by the expression level of the NEO gene or Luciferase Reporter Gene, so the effects of the compounds herein inhibit HCV replication can be evaluated in this system. In this article, a real-time quantitative polymerase chain reaction (qPCR) method was used to detect NEO gene expression level, and chemiluminescence method was used to test Luciferase Reporter Gene expression level.
(§3) 1. Test Method for Measuring EC50 of the Compounds Based on Luciferase Assay.
(§4) The Huh-7 cells transfected with HCV replicons system were seeded into 96-well plates (8,000 cells in 125 μL/well) respectively; each test compound was diluted to desired concentration using 5-fold serial dilutions protocol, 10 doses in duplicate, and added to wells with POD™ 810 Plate Assembler. The plates were incubated in a CO2 incubator for 72 hours; after that, 40 μL of Luciferase assay substrate (Promega Bright-Glo) was added to each well, and detected by a chemiluminescence detection system (Topcount Microplate Scintillation and Luminescence Counter) 5 minutes later; the EC50 (half-maximal effective concentration, concentration for 50% of maximal effect) values of test compounds were analyzed by GraphPad Prism software. In this paper, experiments were repeated twice and set the wells without compounds as negative control.
(§5) 2. Test Method for Measuring EC50 of the Compounds by Detecting Antibiotic G418 Resistance Gene NEO Gene.
(§6) The Huh-7 cells transfected with HCV replicons system were seeded into 96-well plates (8,000 cells in 125 μL/well) respectively; each test compound was diluted to desired concentration using 5-fold serial dilutions protocol, 10 doses in duplicate, and added to each well with POD™ 810 Plate Assembler; the cells were incubated in a CO2 incubator for 72 hours; and detected the expression level of the NEO gene expression with real-time quantitative PCR later; the EC50 (half-maximal effective concentration, concentration for 50% of maximal effect) values of test compounds were analyzed by GraphPad Prism software, respectively. In this paper, experiments were repeated twice and set the wells without compounds as negative control.

A further test deals with HCV GT1b replicon. Kind of test: HCV replicon assay (Huh-7 cells stably transfected with HCV GT1b replicon; luciferase or NEO gene qPCR readout). It counts as cell-based. As to conditions: Hepatitis C virus, HCV 1b genotype replicon, 72 hours. On the procedure:
as §1, §2, §3, §4, §5, §6

Regarding `COC(=O)N[C@H](C(=O)N1CCC[C@H]1c1ncc(-c2ccc(-c3sc(-c4ccc5nc([C@@H]6CCCN6C(=O)[C@@H](NC(=O)OC)C(C)C)[nH]c5c4)c4c3C3CCC3C4)cc2)[nH]1)C(C)C` (stereo partly shown) [Example 26], the figures for the EC50 in the test with HCV GT1a replicon and in the test with HCV GT1b replicon were 0.832 nM and 0.048 nM, respectively.

For `COC(=O)N[C@H](C(=O)N1CC(F)(F)C[C@H]1c1ncc(-c2ccc(-c3ccc(-c4ccc5[nH]c([C@@H]6CC(F)(F)CN6C(=O)[C@@H](NC(=O)OC)C(C)C)nc5c4)c4c3C3CCC3C4)cc2)[nH]1)C(C)C` (stereo partly shown) [Example 12], the figures for the EC50 in the test on HCV GT1a replicon and in the test with HCV GT1b replicon were 0.08 nM and 0.027 nM, respectively.

With `COC(=O)N[C@H](C(=O)N1CCC[C@H]1c1nc2ccc(-c3ccc(-c4ccc(-c5cnc([C@@H]6CC7CC7N6C(=O)[C@@H](NC(=O)OC)C(C)C)[nH]5)cc4)c4c3CC3CCC43)cc2[nH]1)C(C)C` (stereo partly shown) [Example 3], the EC50 with HCV GT1a replicon was 0.088 nM; with HCV GT1b replicon it was 0.018 nM.

Regarding `COC(=O)N[C@H](C(=O)N1CCC[C@H]1c1nc2ccc(-c3ccc(-c4ccc(-c5cnc([C@@H]6C7CCC(C7)N6C(=O)[C@@H](NC(=O)OC)C(C)C)[nH]5)cc4)c4c3C3CCC3C4)cc2[nH]1)C(C)C` (stereo partly shown) [Example 2], the EC50 in the test on HCV GT1a replicon came to 0.071 nM; in the test with HCV GT1b replicon, 0.021 nM.

Take `COC(=O)N[C@H](C(=O)N1CCC[C@H]1c1ncc(-c2ccc(-c3ccc(-c4ccc5nc([C@@H]6CC7CC7N6C(=O)[C@@H](NC(=O)OC)C(C)C)[nH]c5c4)c4c3C3CCC3C4)cc2)[nH]1)C(C)C` (stereo partly shown) [Example 11]: the EC50 is 0.051 nM in the test with HCV GT1a replicon and 0.033 nM with HCV GT1b replicon.

In the case of `COC(=O)N[C@H](C(=O)N1CCC[C@H]1c1ncc(-c2ccc(-c3ccc(-c4cnc([C@@H]5CCCN5C(=O)[C@@H](NC(=O)OC)C(C)C)[nH]4)c4c3C3CCC3C4)cc2)[nH]1)C(C)C` (stereo partly shown) [Example 1], the EC50 with HCV GT1a replicon came to 0.605 nM; with HCV GT1b replicon, 0.005 nM.

In the case of `COC(=O)N[C@H](C(=O)N1CCCC[C@H]1c1ncc(-c2ccc(-c3ccc(-c4ccc5nc([C@@H]6CCCCN6C(=O)[C@@H](NC(=O)OC)C(C)C)[nH]c5c4)c4c3C3CCC3C4)cc2)[nH]1)C(C)C` (stereo partly shown) [Example 13], the EC50 in the test on HCV GT1a replicon is 0.418 nM; in the test on HCV GT1b replicon it was 0.206 nM.

`COC(=O)N[C@H](C(=O)N1C2CC2C[C@H]1c1ncc(-c2ccc(-c3ccc(-c4ccc5nc([C@@H]6CC7CC7N6C(=O)[C@@H](NC(=O)OC)C(C)C)[nH]c5c4)c4c3C3CCC3C4)cc2)[nH]1)C(C)C` (stereo partly shown) [Example 18]: the half-maximal effective concentration (EC50) in the test with HCV GT1a replicon amounted to 0.083 nM; with HCV GT1b replicon, 0.03 nM.

With `COC(=O)N[C@H](C(=O)N1CCCC1c1nc2ccc(-c3ccc(-c4ccc5nc([C@@H]6CCCN6C(=O)[C@@H](NC(=O)OC)C(C)C)[nH]c5c4)c4c3C3C(=O)CCC3C4)cc2[nH]1)C(C)C` (stereo partly shown) [Example 32], the concentration giving a half-maximal response (EC50) in the test on HCV GT1a replicon amounted to 0.063 nM; with HCV GT1b replicon it was 0.026 nM.

As for `CC[C@H](C)[C@H](NC(=O)OC)C(=O)N1CCC[C@H]1C1=Nc2ccc(-c3ccc(-c4ccc5nc([C@@H]6CCCN6C(=O)[C@@H](NC(=O)OC)C(C)C)[nH]c5c4)c4c3CC3CCCC43)cc2S(=O)(=O)N1` (stereo partly shown) [Example 31], the EC50 in the test on HCV GT1a replicon amounted to 0.083 nM; in the test with HCV GT1b replicon it was 0.035 nM.

`COC(=O)N[C@H](C(=O)N1CC2(C[C@H]1c1ncc(-c3ccc(-c4ccc(-c5ccc6nc([C@@H]7CCCN7C(=O)[C@@H](NC(=O)OC)C(C)C)[nH]c6c5)c5c4C4CCC4C5)cc3)[nH]1)OCCO2)C(C)C` (stereo partly shown) [Example 20]: the EC50 in the test on HCV GT1a replicon came out at 0.429 nM; with HCV GT1b replicon, 0.036 nM.

Consider `COC(=O)N[C@H](C(=O)N1C[C@@H](F)C[C@H]1c1ncc(-c2ccc(-c3ccc(-c4ccc5nc([C@@H]6C[C@H](F)CN6C(=O)[C@@H](NC(=O)OC)C(C)C)[nH]c5c4)c4c3C3CCC3C4)cc2)[nH]1)C(C)C` (stereo partly shown) [Example 9], for which the EC50 with HCV GT1a replicon turned out to be 0.035 nM; in the test with HCV GT1b replicon, 0.014 nM.

Consider `COC(=O)N[C@H](C(=O)N1CCC[C@H]1c1ncc(-c2ccc(-c3ccc(-c4ccc5nc([C@@H]6CCCN6C(=O)[C@@H](NC(=O)OC)C(C)C)[nH]c5c4)c4c3C3CCC3C4)cc2)[nH]1)C(C)C` (stereo partly shown) [Example 4], for which the figures for the EC50 with HCV GT1a replicon and in the test on HCV GT1b replicon were 0.06 nM and 0.02 nM, respectively.

For the compound `COC(=O)NC(C(=O)N1CCCC1c1nc2ccc(-c3ccc(-c4ccc(-c5cnc(C6CC7CC7N6C(=O)C(NC(=O)OC)C(C)C)[nH]5)cc4)c4c3CC3CCC43)cc2[nH]1)C(C)C` (stereo not shown) [Example 37], the EC50 came out at 0.063 nM in the test with HCV GT1a replicon and 0.016 nM in the test on HCV GT1b replicon.
